Results published in US7927799B2, “Inhibitors of PGHS-2Transactivator activity” (Ordway Research Institute, priority 2005, dated 2011).

Experiments:
PGHS-2 promoter = test: Chromatin immunoprecipitation (ChIP) of PGHS-2 binding to the PGHS-2 promoter; format: cell-based, human; details: 12 h, PMA 100 nM, PDTC 100 μM, PD98059 10 μM
Method: (§1) A: ChIP was performed with PGHS-2 antibody, using UM-SCC-22B (22B) cells constitutively expressing PGHS-2, and in the absence (Con) or presence of PMA (100 nM), PDTC (100 μM) or PD98059 (PD, 10 μM) for 12 h. Input and immunoprecipitated (IP) DNA was amplified by using primers for MDM2, PGHS-2 promoter and PGHS-2 ORF, and the amplified DNAs were then separated by electrophoresis and scanned with the VersaDOC™ Imaging System.
(§2) In ChIP experiments in prostate cancer cells, using monoclonal anti-PGHS-2, we compared the amount of immunoprecipitable PGHS-2 promoter sequence with the amount of input DNA for each sample; a PGHS-2 ORF primer served as a negative control. […] PGHS-2 also bound to the promoter region of MDM2.
Chromatin immunoprecipitation was performed as described by Luo et al. (1998) and Braunstein et al. (1996). Aliquots of cells (6 ×10^6) in monolayers were treated with 1% formaldehyde for 15 min at room temperature to effect crosslinking. Monolayers were then washed twice with PBS. Extracts were prepared by scraping cells in 1 ml of buffer (150 mM NaCl, 1% NP-40, 0.5% DOC, 0.1% SDS, 50 mM Tris [pH 8.0], 5 mM EDTA) that contained the protease inhibitors leupeptin (10 µg/ml) and pepstatin A (10 µg/ml), phosphatase inhibitors (50 mM NaF and 0.2 mM sodium orthovanadate) and the deacetylase inhibitor, trichostatin A, 5 µM (Calbiochem, San Diego, Calif.). Cell lysates were sonicated to yield chromatin fragments of approximately 600 bp, as assessed by agarose gel electrophoresis. Immunoprecipitation was carried out with anti-p53 (Santa Cruz, Santa Cruz, Calif.), anti-phosphoSer392-p53 (Cell Signaling, Beverly, Mass.), or anti-acetylated p53 (Upstate Biotechnology, Lake Placid, N.Y.). For studies of the PGHS-2 promoter, anti-PGHS-2 (Cayman) was used. […] Relative levels of DNA were determined with QuantifyOne software (Bio-Rad Laboratories, Inc., Hercules, Calif.).

MDM2 promoter = test: Chromatin immunoprecipitation (ChIP) of PGHS-2 binding to the MDM2 promoter; format: cell-based, human; details: 12 h, PDTC 100 μM, PD98059 10 μM
Method: as §1, §2
Chromatin immunoprecipitation was performed as described by Luo et al. (1998) and Braunstein et al. (1996). Aliquots of cells (6 ×10^6) in monolayers were treated with 1% formaldehyde for 15 min at room temperature to effect crosslinking. Monolayers were then washed twice with PBS. […] Cell lysates were sonicated to yield chromatin fragments of approximately 600 bp, as assessed by agarose gel electrophoresis. […] Relative levels of DNA were determined with QuantifyOne software (Bio-Rad Laboratories, Inc., Hercules, Calif.).

[1] = system: PGHS-2 protein expression; test: PGHS-2 protein by immunoblotting of nuclear/cytosol proteins; format: cell-based, human; details: 12 h, PMA 100 nM; for PGHS-2 protein / PGHS-2 expression: confluent UM-SCC-22B cells, PD98059 10 μM, SB203580 10 μM, PDTC 100 μM
Method: A: Effects of PKC activation or signaling pathway inhibitors on PGHS-2 expression. UM-SCC 22B cells were allowed to grow to confluence in 10 cm culture dishes, and then received either control medium (lane 1) or medium containing PMA (lane 2, 100 nM), PD98059 (PD, lane 3, 10 μM), SB203580 (SB, lane 4, 10 μM) or PDTC (lane 5, 100 μM) for 16 h. Cell monolayers were harvested and 40 μg nuclear protein were subjected to immunoblotting with anti-human PGHS-2 (upper panel) or anti-pMAPK (pERK1/2, lower panel). […] Results shown are the means±SD from three similar experiments.
Fractionation of cells in a microfuge and preparation of nucleoproteins was by a previously reported method (Lin et al., 2002). Nuclear extracts were prepared by resuspension of the crude nuclear fraction in high salt buffer (420 mN NaCl, 20% glycerol) at 4° C. with rocking for 1 h. The supernatants were then collected after subsequent centrifugation at 4° C. and 13,000 rpm for 10 min.

human PGHS-2 promoter = test: PGHS-2 promoter (-831/+123) luciferase reporter assay; format: cell-based; details: UM-SCC-22B cells, 12 h; PMA 100 nM, PD98059 10 μM, PDTC 100 μM, SB203580 10 μM
Method: UM-SCC-22B cells were transfected with the −831/+123 PGHS-2 promoter constructs fused to a luciferase reporter or the luciferase reporter with the SV 40 promoter (pGL2 promoter).
Aliquots of cells were treated with PMA (100 mM), PD98059 (10 μM), PDTC (100 μM), or SB203580 (10 μM) for 12 h. Cultures were co-transfected with β-galactosidase reporter plasmids, and luciferase activity, corrected for β-galactosidase activity, measured and expressed as the mean±SD of triplicate culture determinations from three experiments.
To assess PGHS-2 promoter activity in UM-SCC-22B cells, the proximal −831/+123 base pairs of the human PGHS-2 promoter were fused to a luciferase reporter (pGHS-2 LUC) (Cao et al., 1999). This PGHS-2 reporter or SV40 LUC (pGL2 promoter) were transfected into near confluent UM-SCC-22B tumor cells.

PGE2 production = PGE2 production in cells by ELISA; format: cell-based, human; details: DU145 and UM-SCC-22B cells, 12 h; PMA 100 nM, NS398, indomethacin, PD98059 each 10 μM
Method: Cells were plated in 48-well culture dishes and treated or without PMA (100 nM), NS398 (10 μM), indomethacin (10 μM) or PD98059 (10 μM) for 12 h. Cells were transferred to 200 μl PBS for the last 30 min. Samples were then collected and subjected to quantitative analysis of PGE2 by ELISA. The results are shown as mean±SD of results from three representative studies.

[2] = system: PGHS-2 / MDM2 association; test: Co-immunoprecipitation of nuclear PGHS-2 with MDM2; format: cell-based, human; details: UM-SCC-22B cells, PMA 100 nM, 12 h
Method: (§3) Confluent UM-SCC-22B (22B) cells were treated with PMA, 100 nM, or solvent alone for 12 h. Cell nuclei were prepared (Lin et al., 1999) and immunoprecipitated with antibody to PGHS-2. Immunoprecipitated proteins were separated by gel electrophoresis and immunoblotted with antibody to c-Fos, MDM2 or p300. Shown are representative immunoblots from 3 similar experiments. Co-localization of c-Fos with PGHS-2 is seen in nuclei of UM-SCC-22B cells.
(§4) The techniques used were those previously described by our laboratory (Lin et al., 1999). In brief, nucleoproteins were separated on discontinuous SDS-PAGE (9% gels) and then transferred by electroblotting to Immobilon membranes (Millipore, Bedford, Mass.). After blocking with 5% milk in Tris-buffered saline containing 0.1% Tween, the membranes were incubated with various antibodies overnight. Secondary antibodies were either goat anti-rabbit IgG (1:1000) or rabbit anti-mouse IgG (1:1000) (Dako, Carpenteria, Calif.), depending upon the origin of the primary antibody. Immunoreactive proteins were detected by chemiluminescence.

[3] = system: PGHS-1 protein expression; test: PGHS-1 protein by immunoblotting; format: cell-based, human; details: PMA 100 nM, 12 h; cancer cell lines
Method: FIG. 2. Expression of PGHS-2 in ECV 304, DU145 and UM-SCC-22B (22B) cells A: Constitutive expression of PGHS-2 protein in ECV 304, DU145 and UM-SCC-22B cells. Cells were grown to confluence in 10 cm dishes. Monolayers were treated with or without PMA (100 nM) for 12 h; nuclear proteins were then harvested and subjected to immunoblotting with antihuman PGHS-2 (panel 1) or -PGHS-1 (panel 2).
as §4

PGHS-2 mRNA = PGHS-2 mRNA levels by RT-PCR; format: cell-based, human; details: PMA 100 nM, 8 h; ECV 304, DU145 and UM-SCC-22B cells
Method: B: PGHS-2 mRNA levels in ECV 304, DU145 and UM-SCC-22B cells. Confluent cells were treated with or without PMA (100 nM) for 8 h. Total RNA samples were harvested and subjected to RT-PCR using PGHS-2 or GAPDH primers (top and bottom panels, respectively).

[4] = system: PGHS-2 / c-Fos association; test: Co-immunoprecipitation of nuclear PGHS-2 with c-Fos; format: cell-based, human; details: UM-SCC-22B cells, PMA 100 nM, 12 h
Method: as §3, §4

[5] = system: PGHS-2 / p300 association; test: Co-immunoprecipitation of nuclear PGHS-2 with p300; format: cell-based, human; details: UM-SCC-22B cells, PMA 100 nM, 12 h
Method: as §3, §4

S=C(S)N1CCCC1 [PDTC, pyrrolidine dithiocarbamate]
binding of PGHS-2 to the PGHS-2 promoter (PGHS-2 promoter): inhibited
binding of PGHS-2 to the MDM2 promoter (MDM2 promoter): inhibited
PGHS-2 protein / PGHS-2 expression [1]: minimally inhibited
PGHS-2 promoter activity (luciferase) (human PGHS-2 promoter): inhibited

COc1cccc(-c2cc(=O)c3ccccc3o2)c1N [PD98059]
binding of PGHS-2 to the PGHS-2 promoter (PGHS-2 promoter): inhibited
binding of PGHS-2 to the MDM2 promoter (MDM2 promoter): inhibited
PGHS-2 protein / PGHS-2 expression [1]: decreased to very low levels
PGHS-2 promoter activity (luciferase) (human PGHS-2 promoter): inhibited
PGE2 production (PGE2 production): decreased PGE2 production in cancer cells to basal levels

CCCCCCCCCCCCCC(=O)O[C@@H]1[C@@H](C)[C@@]2(O)[C@@H](C=C(CO)C[C@]3(O)C(=O)C(C)=C[C@@H]23)[C@@H]2C(C)(C)[C@]12OC(C)=O [PMA, phorbol-12-myristate-13-acetate]
binding of PGHS-2 to the PGHS-2 promoter (PGHS-2 promoter): minimal increases
nuclear association of PGHS-2 with MDM2 [2]: little increase
abundance of PGHS-1 [3]: no effect
cytosolic PGHS-2 [1]: increased
abundance of PGHS-2 protein in nuclei ([1]; ECV 304, DU145 and UM-SCC-22B cells): increased
PGHS-2 protein / PGHS-2 expression [1]: increase
abundance of PGHS-2 mRNA (PGHS-2 mRNA): increased
nuclear association of PGHS-2 with c-Fos [4]: marked increase
nuclear association of PGHS-2 with p300 [5]: little increase
PGHS-2 promoter activity (luciferase) (human PGHS-2 promoter): only negligibly increased
PGE2 production (PGE2 production): did not significantly increase

C[S+]([O-])c1ccc(-c2nc(-c3ccncc3)c(-c3ccc(F)cc3)[nH]2)cc1 (stereo not drawn) [SB203580]
PGHS-2 protein / PGHS-2 expression [1]: minimally inhibited
PGHS-2 promoter activity (luciferase) (human PGHS-2 promoter): inhibited

CS(=O)(=O)Nc1ccc([N+](=O)[O-])cc1OC1CCCCC1 [NS398]
PGE2 production (PGE2 production): decreased PGE2 production in cancer cells to basal levels

COc1ccc2c(c1)c(CC(=O)O)c(C)n2C(=O)c1ccc(Cl)cc1 [indomethacin]
PGE2 production (PGE2 production): decreased PGE2 production in cancer cells to basal levels
